Laboratory results from paper PMC11744668, “2-Cyanopyrimidine-Containing Molecules for N-Terminal Selective Cyclization of Phage-Displayed Peptides” (ACS Chemical Biology, 2025).
Entries after “also recorded” stand apart in the source; their conditions may differ. Starred links: 1 amine or outer side, 2 acyl side, 3 side chain; linkers in the order of their positions; H or OH if unused. Positions of bridges follow the written chain, without caps; N, C: chain ends. Non-standard residues stand in square brackets, D forms with d. Residues, ends and D or L forms follow the SMILES beside them. No end group written: not given here. X1 = O=C([C@@H]1CSC(c2ncc(N[*:1])cn2)=N1)[*:2]; Abu = CC[C@H](N)C(=O)O

How the values were obtained:
[1] = target: T1, ZNRF3 extracellular domain (ZNRF3-ECD) (Homo sapiens, UniProt Q9ULT6); assay: Biolayer interferometry (BLI) binding to immobilized biotinylated ZNRF3-ECD; settings: for Kd: streptavidin biosensors
T1 construct: The ZNRF3 ECD was expressed and characterized exactly as previously described; SUMO (N, cleaved yes); made in house; host or cells: E. coli BL21, co-expressing BirA
T1 sequence (Q9ULT6 56-219 limits assumed): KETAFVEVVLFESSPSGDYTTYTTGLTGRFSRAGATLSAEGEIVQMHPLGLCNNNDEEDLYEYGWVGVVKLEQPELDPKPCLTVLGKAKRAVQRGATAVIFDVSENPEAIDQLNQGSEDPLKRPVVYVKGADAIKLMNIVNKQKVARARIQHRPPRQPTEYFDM
Method: The ZNRF3 ECD was expressed and characterized exactly as previously described.[38] Plasmid pET28a-SUMO-ZNRF3-Avi was cotransformed into E. coli (BL21) along with a plasmid expressing BirA. The cells were then inoculated into 2× YT containing 50 μg/mL kanamycin and 34 μg/mL chloramphenicol and grown at 37 °C until OD = 0.5. Expression was then induced by the addition of 1 mM IPTG and 50 μM biotin, and then the protein was expressed for 18 h at 16 °C. The cells were then pelleted (3750g, 15 min) and then resuspended in buffer A (50 mM Tris-HCl, 10% glycerol, 150 mM NaCl, and 25 mM imidazole, pH 7.5, 20 mL/liter of expression). The cells were then lysed by sonication (1 s on, 1 s off, 5 min, 60% A, repeated once), and the lysate was clarified by centrifugation (25,000g, 20 min). The supernatant was then incubated with a Ni-NTA column for 45 min at 4 °C. The column was then washed with 5 CV of buffer A before being eluted using 2 CV of buffer B (buffer A + 240 mM imidazole). The elution was then concentrated using an Amicon centrifugal filter before being desalted into buffer A on a HiPrep 26/10 column. The SUMO tag was then cleaved by the addition of 30 μg/mL SUMO protease and incubation for 48 h at 4 °C. The protein was then loaded onto a second Ni-NTA column for 45 min at 4 °C, and the flowthrough was collected and concentrated to 1 mL by centrifugation. Pure protein was then isolated using size exclusion chromatography (HiLoad 16/600, Superdex 75 pg) in buffer C (50 mM Tris-HCl, pH 7.5, 10% (v/v) glycerol, 150 mM NaCl, and 0.5 mM EDTA). Pure protein was stored in storage buffer (50 mM Tris-HCl, pH 7.5, 50% (v/v) glycerol, and 150 mM NaCl) at −80 °C before being used for assays.
Biolayer interferometry (BLI) experiments were performed using streptavidin-coated biosensors (Sartorius Bio) on an Octet R8 biolayer interferometer (Sartorius Bio). All experiments were performed in assay buffer (10 mM HEPES, 150 mM NaCl, and 0.01% Tween 20, pH 7.5). Biotinylated ZNRF3 (28 μg/mL in assay buffer) was loaded onto the sensor to 4 nm of loading over 10 min, and then the sensors were quenched for one min with a 1% BSA solution in assay buffer. Peptides were serially diluted in assay buffer containing 0.8% DMF, and the association and dissociation to ZNRF3 were measured over 3 and 5 min, respectively. Between each experiment, sensors were regenerated using 10 mM glycine, pH 1.5. Binding curves were double-referenced against a protein-only sensor and a parallel unloaded sensor to correct for any nonspecific binding to the sensors. All curves were fit in the Octet Kinetic Analysis program (Sartorius Bio) using a 1:1 protein/ligand binding model.

CA5C-sfGFP = assay: Cyclization of CA5C-sfGFP with linkers (LC-ESI-MS); settings: 100 μM linker, 3 h, 22 °C (RT), PBS pH 7.4, 1 mM TCEP
Method: The designed organic linkers were tested for their ability to cyclize a CA5C peptide expressed as an N-terminal fusion to sfGFP (CA5C-sfGFP). Following reduction of the protein with 1 mM TCEP for 30 min, 100 μM compounds were reacted with the reduced CA5C-sfGFP for 3 h in PBS (pH 7.4). Following the reaction, the protein was analyzed via electrospray ionization mass spectrometry (ESI-MS) analysis to determine the desired adduct and any potential side reactions that occurred. […] This is likely due to the electron withdrawing effects of the nitrogen atoms adjacent to the nitrile in the 2-cyanopyrimidine derivatives. […] Following previously established Bayesian deconvolution of the mass spectra,[23] protein masses from each reaction (MW = 28,399 Da) corresponded well with that of the expected cyclic product (MW = 28,399 Da). […] This observed mass matches a TCEP-conjugated product resulting from a previously reported competing phospha-Michael addition of TCEP to the acrylamide moiety.[24] This product has a TCEP-functionalized linker that is nonreactive toward the internal cysteine (Figure 2A,B). Following these initial studies, we then further optimized the cyclization of CA5C-sfGFP using pCAmCP and mCAmCP by varying the reaction time, temperature, and concentration of linkers (Figure 2C).
Purified CA5C-sfGFP was diluted to 500 nM in PBS (pH 7.4) containing 1 mM TCEP and left to incubate for 30 min at 37 °C. Linker (100 μM final concentration) or equivalent amounts of DMSO were then added to the solution, and it reacted at varying times (3 or 16 h) and temperatures (22 or 37 °C). All initial tests for reactivity were performed at 22 °C for 3 h, while linkers pCAmCP and mCAmCP were optimized with the additional conditions. The reaction mixtures were then concentrated and exchanged to ammonium bicarbonate (50 mM, pH 8.0) using an Amicon centrifugal filter (MWCO: 10 kDa). Samples were analyzed using a QExactive Orbitrap LC–MS System (Thermo Fisher) and deconvoluted using UniDec software.[23]

[2] = target: T1, ZNRF3 extracellular domain (ZNRF3-ECD); assay: Phage selection against ZNRF3-ECD, NGS enrichment, pCAmCP-cyclized library; assay type: binding
Source text: In addition to simply ensuring the cyclization potential on phage, we also looked to investigate the selection differences using two different linkers to macrocyclize the same initial peptide library. ZNRF3 is a membrane protein that contains an intracellular E3 ligase domain and has previously shown potential in promoting degradation of oncogenic membrane proteins, such as PDL1.[32] ZNRF3 also plays a major role in the regulation of the Wnt signaling cascade, which can modulate a variety of cell processes related to oncogenesis and cell differentiation.[33]−[36] […] Because it has an extracellular domain that can be easily accessible to macrocyclic peptides, we envisioned that a selection against the extracellular domain for ZNRF3 (ZNRF3-ECD) would afford peptides that could potentially be used in the development of proteolysis-targeting chimeras (PROTACs) for a variety of membrane proteins. We expressed and characterized a biotinylated ZNRF3-ECD using an Avi-Tag on the […] to facilitate the selection using streptavidin magnetic beads, as has been previously described (Figure S20).[38] […] To avoid the potential for enriching peptides that bind to the streptavidin resin, we alternated loading the protein using streptavidin and NHS-functionalized magnetic beads for the first three rounds of selection (Figure 5).
The purified phage library (10^11 to 10^12 cfu) in binding buffer was incubated with 1 mM TCEP at 37 °C. After 30 min, the linker (pCAmCP or mCAmCP, 10 mM in DMSO) was added to a final concentration of 100 μM. The solution was incubated for 24 h at RT with slow rotation. The library was then directly used for affinity selection without further purification.
Streptavidin-coated magnetic beads (100 μL, 50% slurry, Cytiva Sera-Mag) were transferred to a 1.5 mL tube, washed three times with 1 mL of binding buffer (10 mM HEPES, 150 mM NaCl, 10 mM MgCl2, and 1 mM KCl, pH 7.4), resuspended in 100 μL of binding buffer, and split into two tubes. […]

[3] = 10 mM HEPES, 150 mM NaCl, 0.01% Tween 20, pH 7.5, 0.8% DMF, 1:1 binding model, mean ± s.d., n = 3
[4] = 10 mM HEPES, 150 mM NaCl, 0.01% Tween 20, pH 7.5, 0.8% DMF

Compound | Kd [1, 3] | reactivity with / cyclization of CA5C-sfGFP (in words) (CA5C-sfGFP) | binding to ZNRF3 (in words) [1, 4] | further results
CC[C@H](C)[C@@H]1NC(=O)[C@H](Cc2ccccc2)NC(=O)[C@H](CCC(N)=O)NC(=O)[C@H](C)NC(=O)[C@H](C)NC(=O)[C@H](CC(N)=O)NC(=O)[C@@H]2CCCN2C(=O)[C@@H]2CSC(=N2)c2ncc(cn2)NC(=O)CSC[C@@H](C(N)=O)NC(=O)[C@H](C)NC(=O)[C@H](CCCNC(=N)N)NC(=O)[C@H](CO)NC(=O)[C@H](Cc2ccc(O)cc2)NC(=O)[C@H](CCCNC(=N)N)NC1=O [Peptide Z27S3] ({CH2CO}-[X1]PNAAQFIRYSRAC-NH2; thioether N-14) | 3.5 ± 0.3 µM |  |  | 
C=CC(=O)Nc1cnc(C#N)cn1 [pAcCPy] |  | essentially no reactivity with the protein |  | 
CC[C@H](C)[C@@H]1NC(=O)[C@H](Cc2ccccc2)NC(=O)[C@H](CCC(N)=O)NC(=O)[C@H](C)NC(=O)[C@H](C)NC(=O)[C@H](CC(N)=O)NC(=O)[C@@H]2CCCN2C(=O)[C@@H](N)CSSC[C@@H](C(N)=O)NC(=O)[C@H](C)NC(=O)[C@H](CCCNC(=N)N)NC(=O)[C@H](CO)NC(=O)[C@H](Cc2ccc(O)cc2)NC(=O)[C@H](CCCNC(=N)N)NC1=O [Peptide Z27S3Disulf] (H-CPNAAQFIRYSRAC-NH2; disulfide 1-14) | 4 ± 1 µM |  |  | 
CC(C)C[C@@H]1NC(=O)[C@H](CCCCN)NC(=O)[C@H](CCC(N)=O)NC(=O)[C@H](CCCNC(=N)N)NC(=O)[C@H](Cc2c[nH]c3ccccc23)NC(=O)[C@H](C)NC(=O)[C@H](CCC(=O)O)NC(=O)[C@H](CC(C)C)NC(=O)[C@@H]2CCCN2C(=O)[C@H](CO)NC(=O)[C@H](CC(C)C)NC(=O)[C@H](Cc2c[nH]cn2)NC(=O)[C@@H](N)CSSC[C@@H](C(N)=O)NC1=O [Peptide Z27S1Disulf] (H-CHLSPLEAWRQKLC-NH2; disulfide 1-14) | 3 ± 2 µM |  |  | 
CHLSPLEAWRQKLC (also: sidechain bridge or staple (positions not given here)) [Peptide Z27S1-mCP, Z27S1 cyclized with mCAmCP] |  |  | No significant dose-dependent interactions were observed; also recorded: no significant binding to ZNRF3 | 
[Abu]PNAAQFIRYSRA[Abu] [Peptide Z27S3Abu, Abu derivative of Z27S3] |  |  | no binding to ZNRF3 | 
C=CC(=O)Nc1ccnc(C#N)n1 [mAcCP] |  | did not result in the expected CA5C-sfGFP cyclization |  | 
CC(C)C[C@@H]1NC(=O)[C@H](CCCCN)NC(=O)[C@H](CCC(N)=O)NC(=O)[C@H](CCCNC(=N)N)NC(=O)[C@H](Cc2c[nH]c3ccccc23)NC(=O)[C@H](C)NC(=O)[C@H](CCC(=O)O)NC(=O)[C@H](CC(C)C)NC(=O)[C@@H]2CCCN2C(=O)[C@H](CO)NC(=O)[C@H](CC(C)C)NC(=O)[C@H](Cc2c[nH]cn2)NC(=O)[C@@H]2CSC(=N2)c2ncc(cn2)NC(=O)CSC[C@@H](C(N)=O)NC1=O [Peptide Z27S1] ({CH2CO}-[X1]HLSPLEAWRQKLC-NH2; thioether N-14) |  |  | nanomolar affinity to ZNRF3 | Kd ([1]; pH 7.5, 1:1 binding model, value as given in abstract): 0.36 µM; fold increase in abundance after round 2 ([2]; enrichment after round 2): > 16,000 -fold; presence in round 1 sequencing data (in words) ([2]; round 1): not found in the round 1 sequencing data; share of total sequences in round 4 ([2]; round 4, 69,462 total sequences): 67%
C=CC(=O)Nc1cnc(C#N)nc1 [pAcCP] |  | did not result in the expected CA5C-sfGFP cyclization |  | 
